Experimental data as given in US8389508B2 (Glaxo Group Limited, priority 2010, dated 2013).
Structures can show the parent of a compound that is named as a salt. Values belong to the compound of their own block, whether it stands above or below them.

What was measured:
[1] = target: T1, human Endothelial Differentiation Gene 1 (EDG1), S1P1 receptor (Homo sapiens, UniProt P21453); test: S1P1 Assay (Tango EDG1-bla/U2OS beta-lactamase reporter, agonist dose response); format: cell-based; conditions: EDG1-bla/U2OS cells, blue/green emission ratio, 10 point dose response, free base or salt form; read-out: pEC50 (S1P1 assay) (converted)
T1 construct: TEV protease site; Gal4-VP16 transcription factor; expressed in transfected cells; host or cells: EDG1-bla/U2OS (Tango GPCR-bla U2OS parental cell line)
T1 sequence (P21453 whole entry, the tested form may be a part): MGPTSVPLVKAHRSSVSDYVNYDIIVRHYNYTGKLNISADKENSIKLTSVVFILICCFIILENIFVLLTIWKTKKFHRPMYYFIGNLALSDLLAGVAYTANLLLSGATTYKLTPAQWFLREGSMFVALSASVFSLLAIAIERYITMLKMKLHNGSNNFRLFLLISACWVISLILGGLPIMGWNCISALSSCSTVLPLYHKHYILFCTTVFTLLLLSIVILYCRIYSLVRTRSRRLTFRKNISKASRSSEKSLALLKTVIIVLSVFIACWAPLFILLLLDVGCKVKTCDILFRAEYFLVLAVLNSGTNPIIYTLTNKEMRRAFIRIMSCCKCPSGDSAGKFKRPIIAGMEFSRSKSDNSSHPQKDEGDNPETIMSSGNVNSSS
In short: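 U2OS Tango cells with human EDG1 coupled to TEV site/Gal4-VP16 beta-lactamase reporter, serum-starved 24 h, then exposed overnight at 37 °C to 10-point compound dilutions. CCF4-AM FRET substrate 2 h RT; 460/530 nm ratio normalised to agonist and DMSO controls, sigmoidal fit; intrinsic activity relative to a reference compound set at 100%.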

[2] = target: T2, human Endothelial Differentiation G-protein Coupled Receptor 3 (EDG3), S1P3 receptor (Homo sapiens, UniProt Q99500); test: S1P3 Assay (GeneBLAzer EDG3-Ga15-NFAT-bla HEK 293T beta-lactamase reporter, agonist dose response); format: cell-based; conditions: EDG3-Ga15-NFAT-bla HEK 293T cells, blue/green emission ratio, 10 point dose response, free base or salt form; read-out: pEC50 (S1P3 assay) (converted)
T2 construct: expressed in transfected cells; host or cells: GeneBLAzer EDG3-Ga15-NFAT-bla HEK 293T
T2 sequence (Q99500 whole entry): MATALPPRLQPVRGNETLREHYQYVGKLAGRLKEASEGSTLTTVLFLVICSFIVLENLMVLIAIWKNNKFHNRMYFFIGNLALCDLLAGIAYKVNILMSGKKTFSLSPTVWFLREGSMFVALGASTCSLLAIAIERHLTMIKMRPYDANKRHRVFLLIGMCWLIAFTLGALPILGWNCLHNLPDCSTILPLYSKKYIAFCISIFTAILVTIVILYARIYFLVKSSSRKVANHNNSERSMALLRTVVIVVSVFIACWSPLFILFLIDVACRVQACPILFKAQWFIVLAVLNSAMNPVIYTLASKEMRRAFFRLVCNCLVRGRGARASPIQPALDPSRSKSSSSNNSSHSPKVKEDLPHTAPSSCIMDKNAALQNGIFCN
In short: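 HEK 293T cells stably expressing human EDG3 with Ga15 and NFAT-beta-lactamase reporter, ~10,000 cells/well, exposed overnight at 37 °C to 10-point compound doses in charcoal-stripped serum medium. CCF4-AM substrate loaded 2 h at room temperature; 460/530 nm ratio normalized to DMSO and agonist controls, sigmoidal fit; intrinsic activity relative to reference agonist maximum (100%).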

SMILES: CCc1c(CCN2CCCC(C(=O)O)C2)cccc1-c1nsc(-c2ccc(OC(C)C)c(Cl)c2)n1 (stereo not shown) [Example 70]
EC50 [1]: < 0.001 µM
EC50 [2]: > 3.16 µM

SMILES: Cc1c(CCN2CCC(C(=O)O)CC2)cccc1-c1nsc(-c2ccc(OC(C)C)c(Cl)c2)n1 [Example 74, 1-{2-[3-(5-{3-chloro-4-[(1-methylethyl)oxy]phenyl}-1,2,4-thiadiazol-3-yl)-2-methylphenyl]ethyl}-4-piperidinecarboxylic acid]
EC50 [1]: < 0.001 µM
EC50 [2]: > 3.16 µM

SMILES: CCc1c(CCN2CCC(C(=O)O)CC2)cccc1-c1nsc(-c2cnc(OC(C)C)c(Cl)c2)n1 [Example 75, 1-{2-[3-(5-{5-chloro-6-[(1-methylethyl)oxy]-3-pyridinyl}-1,2,4-thiadiazol-3-yl)-2-ethylphenyl]ethyl}-4-piperidinecarboxylic acid trifluoroacetate]
EC50 [1]: ≤ 0.01 µM
EC50 [2]: > 3.16 µM

SMILES: CCc1c(CN2CCC(C(=O)O)C2)cccc1-c1cnc(-c2ccc(OC(C)C)c(C#N)c2)s1 (stereo not shown) [Example 83]
EC50 [1]: ≤ 0.01 µM
EC50 [2]: > 10 µM

SMILES: CCc1c(CN2CCC(CC(=O)O)CC2)cccc1-c1cnc(-c2ccc(OC(C)C)c(C#N)c2)s1 [Example 87]
EC50 [1]: < 0.1 µM
EC50 [2]: > 10 µM

SMILES: CCc1c(CCN2C[C@H](O)C[C@H]2C(=O)O)cccc1-c1cnc(-c2ccc(OC(C)C)c(C#N)c2)s1 [Example 91]
EC50 [1]: ≤ 0.01 µM
EC50 [2]: > 10 µM

SMILES: CCc1c(CCN2CCCC(C(=O)O)C2)cccc1-c1cnc(-c2ccc(OC(C)C)c(C#N)c2)s1 (stereo not shown) [Example 92]
EC50 [1]: < 0.001 µM
EC50 [2]: > 3.16 µM

Continued, values first:

EC50 [1]: ≤ 0.01 µM
EC50 [2]: > 3.16 µM
SMILES: CCc1c(CCN2CCC(CC(=O)O)CC2)cccc1-c1nsc(-c2ccc(OC(C)C)c(Cl)c2)n1 [Example 72]

EC50 [1]: ≤ 0.01 µM
EC50 [2]: > 3.16 µM
SMILES: COc1c(CCN2CCC(C(=O)O)CC2)cccc1-c1nsc(-c2ccc(OC(C)C)c(Cl)c2)n1 [Example 73, 1-{2-[3-(5-{3-chloro-4-[(1-methylethyl)oxy]phenyl}-1,2,4-thiadiazol-3-yl)-2-(methyloxy)phenyl]ethyl}-4-piperidinecarboxylic acid trifluoroacetate]

EC50 [1]: ≤ 0.01 µM
EC50 [2]: > 3.16 µM
SMILES: CCc1c(CCN2CCC[C@H]2C(=O)O)cccc1-c1nsc(-c2ccc(CC(C)C)c(C#N)c2)n1 [Example 76, 1-[2-(3-{5-[3-cyano-4-(2-methylpropyl)phenyl]-1,2,4-thiadiazol-3-yl}-2-ethylphenyl)ethyl]-L-proline trifluoroacetate]

EC50 [1]: ≤ 0.01 µM
EC50 [2]: > 3.16 µM
SMILES: CCc1c(CCN2CCC(C(=O)O)C2)cccc1-c1nsc(-c2ccc(CC(C)C)c(C#N)c2)n1 (stereo not shown) [Example 78]

EC50 [1]: ≤ 0.01 µM
EC50 [2]: > 3.16 µM
SMILES: CCc1c(CCN2CC[C@H](C(=O)O)C2)cccc1-c1nsc(-c2ccc(CC(C)C)c(C#N)c2)n1 [Example 79]

EC50 [1]: < 0.001 µM
EC50 [2]: > 3.16 µM
SMILES: CCc1c(CCN2CCC[C@H](C(=O)O)C2)cccc1-c1nsc(-c2ccc(CC(C)C)c(C#N)c2)n1 [Example 80]

EC50 [1]: ≤ 0.01 µM
EC50 [2]: > 10 µM
SMILES: CCc1c(CN2CC[C@H](C(=O)O)C2)cccc1-c1cnc(-c2ccc(OC(C)C)c(C#N)c2)s1 [Example 84]

EC50 [1]: ≤ 0.01 µM
EC50 [2]: > 10 µM
SMILES: CCc1c(CCN2CCC[C@H]2C(=O)O)cccc1-c1cnc(-c2ccc(OC(C)C)c(C#N)c2)s1 [Example 88, 1-{2-[3-(2-{3-cyano-4-[(1-methylethyl)oxy]phenyl}-1,3-thiazol-5-yl)-2-ethylphenyl]ethyl}-L-proline trifluoroacetate]

EC50 [1]: < 0.001 µM
EC50 [2]: > 3.16 µM
SMILES: CCc1c(CCCN2CC(C(=O)O)C2)cccc1-c1cnc(-c2ccc(OC(C)C)c(C#N)c2)s1 [Example 93, 1-{3-[3-(2-{3-cyano-4-[(1-methylethyl)oxy]phenyl}-1,3-thiazol-5-yl)-2-ethylphenyl]propyl}-3-azetidinecarboxylic acid trifluoroacetate]

EC50 [1]: ≤ 0.01 µM
EC50 [2]: > 3.16 µM
SMILES: CCc1c(CCCN2CCC(C(=O)O)C2)cccc1-c1cnc(-c2ccc(OC(C)C)c(C#N)c2)s1 (stereo not shown) [Example 94]
